Data: patent US20050228016A1, “TETRAHYDROQUINOLINES FOR MODULATING THE EXPRESSION OF EXOGENOUS GENES VIA AN ECDYSONE RECEPTOR COMPLEX” (priority 2002, published 2005)

Assays:
[1] = tested on: GAL4 DBD-CfEcR(DEF)/VP16AD-MmRXRE; details: CHO 13B3 clone, 48 h, average of two wells
Source text: GAL4 DBD-CfEcR(DEF)/VP16AD-MmRXRE: The wild-type D, E, and F domains from spruce budworm Choristoneura fumiferana EcR (“CfEcR-DEF”; SEQ ID NO: 1) were fused to a GAL4 DNA binding domain (“Gal4DBD1-147”; nucleotides 31 to 471 of SEQ ID NO: 2) and placed under the control of the SV40e promoter of pM vector (PT3119-5, Clontech, Palo Alto, Calif.). The D and E domains from Mus Musculus RXR (“MmRXR-DE”; SEQ ID NO: 22) were fused to the transactivation domain from VP16 (“VP16AD”; SEQ ID NO: 5) and placed under the control of the SV40e promoter of the pVP16 vector (PT3127-5, Clontech, Palo Alto, Calif.).
CHO cells were transiently transfected with transcription cassettes for GAL4 DBD-CfEcR(DEF) and for VP16AD-MmRXRE controlled by SV40e promoters. Stably transfected cells were selected using Hygromycin. Individually isolated CHO cell clones were transiently transfected with a GAL4 RE-luciferase reporter (pFR-Luc, Stratagene, La Jolla, Calif.). The 13B3 clone was selected using Zeocin.
Cells were trypsinized and diluted to a concentration of 2.5×10^4 cells mL. 100 μL of cell suspension was placed in each well of a 96 well plate and incubated at 37° C. under 5% CO2 for 24 h. Ligand stock solutions were prepared in DMSO and diluted 300 fold for all treatments.
Luciferase reporter gene expression was measured 48 h after cell treatment using Bright-Glo™ Luciferase Assay System from Promega (E2650). Luminescence was detected at room temperature using a Dynex MLX microtiter plate luminometer.
Each assay was conducted in two separate wells, and the two values were averaged. Fold inductions were calculated by dividing relative light units (“RLU”) in ligand treated cells with RLU in DMSO treated cells.

[2] = target: T1, Gal4DBD/AaEcR (DEF) (Aedes aegypti, UniProt P49880); experiment: cell-based; assay type: cell-based; details: 33 μM; 3T3 cells; 48 h; average of two wells
T1 construct: The wildtype D, E, and F domains from mosquito Aedes aegypti EcR; expressed in transfected cells; host or cells: 3T3 cells
T1 sequence (P28704 286-520 A311G/G315S/G445S/I449V): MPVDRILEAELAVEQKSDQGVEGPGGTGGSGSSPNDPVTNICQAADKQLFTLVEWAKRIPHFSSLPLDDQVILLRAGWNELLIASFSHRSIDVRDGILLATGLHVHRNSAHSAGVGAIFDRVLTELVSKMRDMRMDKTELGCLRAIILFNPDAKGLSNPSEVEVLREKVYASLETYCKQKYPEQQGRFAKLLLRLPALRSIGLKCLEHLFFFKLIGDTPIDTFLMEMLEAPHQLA
T1 sequence (P49880 405-776): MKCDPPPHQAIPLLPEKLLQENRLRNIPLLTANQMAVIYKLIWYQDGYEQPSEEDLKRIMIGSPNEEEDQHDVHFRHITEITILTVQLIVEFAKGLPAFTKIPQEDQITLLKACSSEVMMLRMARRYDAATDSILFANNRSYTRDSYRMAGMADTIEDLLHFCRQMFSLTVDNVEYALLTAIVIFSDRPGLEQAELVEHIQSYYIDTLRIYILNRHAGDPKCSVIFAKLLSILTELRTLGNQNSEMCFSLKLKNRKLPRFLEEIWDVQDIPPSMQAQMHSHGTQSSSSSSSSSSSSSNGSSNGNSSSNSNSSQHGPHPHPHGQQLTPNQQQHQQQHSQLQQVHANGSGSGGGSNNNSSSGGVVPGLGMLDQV
How it was run: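 Single-dose ligand testing at 33 μM, applied in serum medium after 4 h transfection. Host was 3T3 cells carrying Gal4DBD/AaEcR (DEF) plus a 5× GAL4 RE-driven firefly luciferase reporter (pFRLuc).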

[3] = target: T2, Bombyx mori EcR (VP16-BmEcR, CVBE) (Bombyx mori, UniProt P49881); experiment: Z3 assay (HEK-293 clone Z3 with CVBE and 6x EcRE LacZ, β-galactosidase reporter); assay type: cell-based; details: 48 h, average of two wells
T2 construct: expressed in transfected cells
T2 sequence (P49881 86-606): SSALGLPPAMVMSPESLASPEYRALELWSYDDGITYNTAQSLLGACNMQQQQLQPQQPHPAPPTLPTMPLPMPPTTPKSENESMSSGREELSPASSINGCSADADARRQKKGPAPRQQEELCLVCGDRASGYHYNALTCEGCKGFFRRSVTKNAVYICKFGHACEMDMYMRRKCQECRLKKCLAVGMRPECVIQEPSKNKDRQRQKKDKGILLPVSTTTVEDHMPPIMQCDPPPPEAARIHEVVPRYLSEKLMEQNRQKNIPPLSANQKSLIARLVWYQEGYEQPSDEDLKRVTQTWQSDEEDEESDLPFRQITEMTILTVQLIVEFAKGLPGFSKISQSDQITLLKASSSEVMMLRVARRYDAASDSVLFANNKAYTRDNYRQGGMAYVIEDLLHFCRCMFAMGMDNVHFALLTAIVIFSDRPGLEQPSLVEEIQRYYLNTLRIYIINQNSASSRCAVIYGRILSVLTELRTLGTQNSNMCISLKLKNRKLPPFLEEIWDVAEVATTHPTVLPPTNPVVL

Structure (SMILES): Cc1ccc(C(=O)N2c3ccccc3C(Nc3ccccc3)CC2C)cc1 (mixture of isomers) [Compound I-39]
- Fold Induction Average, 13B3V1 Assay 33 μM [1]: 1 fold
- Fold Induction Average, AA_3T3V1 Assay 33 μM [2]: 182 fold
- Fold Induction Average, Z3V1 Assay 33 μM [3]: 4 fold

Structure (SMILES): Cc1ccc(C(=O)N2c3ccccc3C(Nc3ccccc3Cl)CC2C)cc1 (mixture of isomers) [Compound I-41]
- Fold Induction Average, 13B3V1 Assay 33 μM [1]: 1 fold
- Fold Induction Average, AA_3T3V1 Assay 33 μM [2]: 2 fold
- Fold Induction Average, Z3V1 Assay 33 μM [3]: 1 fold

Structure (SMILES): C[C@H]1C[C@H](Nc2ccccc2)c2ccccc2N1C(=O)c1ccc(F)c(F)c1 (relative stereo) [Compound I-15]
- Fold Induction Average, 13B3V1 Assay 33 μM [1]: 1 fold
- Fold Induction Average, AA_3T3V1 Assay 33 μM [2]: 132 fold
- Fold Induction Average, Z3V1 Assay 33 μM [3]: 20 fold

Structure (SMILES): Cc1ccc(C(=O)N2c3ccccc3[C@@H](Nc3ccccc3)C[C@@H]2C)cc1F (relative stereo) [Compound I-16]
- Fold Induction Average, 13B3V1 Assay 33 μM [1]: 1 fold
- Fold Induction Average, AA_3T3V1 Assay 33 μM [2]: 376 fold
- Fold Induction Average, Z3V1 Assay 33 μM [3]: 27 fold

Structure (SMILES): C[C@H]1C[C@H](Nc2ccccc2)c2ccccc2N1C(=O)c1ccc(C(F)(F)F)c(F)c1 (relative stereo) [Compound I-17]
- Fold Induction Average, 13B3V1 Assay 33 μM [1]: 1 fold
- Fold Induction Average, AA_3T3V1 Assay 33 μM [2]: 135 fold
- Fold Induction Average, Z3V1 Assay 33 μM [3]: 9 fold

Structure (SMILES): Cc1ccc(N[C@H]2C[C@H](C)N(C(=O)c3ccc(C)c(F)c3)c3ccc(C)cc32)cc1 (relative stereo) [Compound I-22]
- Fold Induction Average, 13B3V1 Assay 33 μM [1]: 1 fold
- Fold Induction Average, AA_3T3V1 Assay 33 μM [2]: 132 fold
- Fold Induction Average, Z3V1 Assay 33 μM [3]: 3 fold

Structure (SMILES): C[C@H]1C[C@H](Nc2ccc(F)cc2)c2cc(F)ccc2N1C(=O)c1ccc(F)c(F)c1 (relative stereo) [Compound I-26]
- Fold Induction Average, 13B3V1 Assay 33 μM [1]: 95 fold
- Fold Induction Average, AA_3T3V1 Assay 33 μM [2]: 124 fold
- Fold Induction Average, Z3V1 Assay 33 μM [3]: 152 fold

Structure (SMILES): C[C@H]1C[C@H](Nc2ccc(F)cc2)c2cc(F)ccc2N1C(=O)c1ccc(C(F)(F)F)c(F)c1 (relative stereo) [Compound I-27]
- Fold Induction Average, 13B3V1 Assay 33 μM [1]: 6 fold
- Fold Induction Average, AA_3T3V1 Assay 33 μM [2]: 112 fold
- Fold Induction Average, Z3V1 Assay 33 μM [3]: 119 fold

Structure (SMILES): Cc1ccc(N[C@@H]2C[C@H](C)N(C(=O)c3ccc(C)c(F)c3)c3ccc(C)cc32)cc1 (relative stereo) [Compound I-28]
- Fold Induction Average, 13B3V1 Assay 33 μM [1]: 1 fold
- Fold Induction Average, AA_3T3V1 Assay 33 μM [2]: 1 fold
- Fold Induction Average, Z3V1 Assay 33 μM [3]: 1 fold

Structure (SMILES): C[C@H]1C[C@@H](Nc2ccccc2)c2ccccc2N1C(=O)c1ccc2c(c1)OCO2 (relative stereo) [Compound I-31]
- Fold Induction Average, 13B3V1 Assay 33 μM [1]: 1 fold
- Fold Induction Average, AA_3T3V1 Assay 33 μM [2]: 48 fold
- Fold Induction Average, Z3V1 Assay 33 μM [3]: 1 fold

Structure (SMILES): COc1ccc(C(=O)N(c2ccccc2)C2CC(C)N(C(=O)c3ccc(Cl)cc3)c3ccccc32)cc1 (centres unmarked) [Compound I-120]
- Fold Induction Average, 13B3V1 Assay 33 μM [1]: 1 fold
- Fold Induction Average, AA_3T3V1 Assay 33 μM [2]: 249 fold

Structure (SMILES): Cc1ccc(NC2CC(C)N(C(=O)c3ccc(F)cc3)c3ccc(C)cc32)cc1 (centres unmarked) [Compound I-124]
- Fold Induction Average, 13B3V1 Assay 33 μM [1]: 3 fold
- Fold Induction Average, AA_3T3V1 Assay 33 μM [2]: 1 fold

Structure (SMILES): CC(=O)N(c1ccc(C)cc1)C1CC(C)N(C(=O)c2ccccc2)c2ccccc21 (centres unmarked) [Compound I-149]
- Fold Induction Average, 13B3V1 Assay 33 μM [1]: 3 fold
- Fold Induction Average, AA_3T3V1 Assay 33 μM [2]: 1 fold

Structure (SMILES): Cc1ccc(C(=O)N(c2ccccc2)C2CC(C)N(C(=O)c3ccc(Cl)cc3)c3ccccc32)cc1 (centres unmarked) [Compound I-161]
- Fold Induction Average, 13B3V1 Assay 33 μM [1]: 1 fold
- Fold Induction Average, AA_3T3V1 Assay 33 μM [2]: 28 fold

Structure (SMILES): CC(=O)N1c2ccccc2C(N(C(=O)c2ccccc2F)c2ccccc2)CC1C (centres unmarked) [Compound I-185]
- Fold Induction Average, 13B3V1 Assay 33 μM [1]: 1 fold
- Fold Induction Average, Z3V1 Assay 33 μM [3]: 1 fold

Structure (SMILES): Cc1ccc(N(C(=O)c2ccc3c(c2)OCO3)C2CC(C)N(C(=O)c3ccc4c(c3)OCO4)c3ccc(C)cc32)cc1 (centres unmarked) [Compound I-194]
- Fold Induction Average, 13B3V1 Assay 33 μM [1]: 1 fold
